Assay results: PubChem BioAssay AID256 (DTP/NCI, 2004)
“And” between values parts separate entries of the source, which are not always exact repeats. Equal entries are not always repeated. Inconclusive results and toxic doses are left out.

System: CD2F1 mice, L1210 leukemia ip, survival T/C
Test: NCI In Vivo Anticancer Drug Screen. Data for tumor model L1210 Leukemia (intraperitoneal) in CD2F1 (CDF1) mice
Conditions: higher = longer survival
In short: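 Ratio T/C, where T is the treated-group value and C the vehicle-dosed control value, from mice implanted with a transplantable tumor.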

[1] = endpoint: mean survival time, dose: 100.0 mg/kg/injection, schedule: Q01DX001 (ip), vehicle: saline
[2] = endpoint: mean survival time, dose: 200.0 mg/kg/injection, schedule: Q01DX001 (ip), vehicle: saline
[3] = endpoint: mean survival time, dose: 400.0 mg/kg/injection, schedule: Q01DX001 (ip), vehicle: saline

For `O=C(Nc1ccccc1F)c1cccc(Cl)c1`, the T/C (endpoint: mean survival time, dose: 100.0 mg/kg/injection, schedule: Q01DX009 (ip), vehicle: saline + alcohol) was 94 % of control, the T/C (endpoint: mean survival time, dose: 100.0 mg/kg/injection, schedule: Q04DX003 (ip), vehicle: saline + alcohol) was 95 % of control and the T/C (endpoint: mean survival time, dose: 200.0 mg/kg/injection, schedule: Q01DX009 (ip), vehicle: saline + alcohol) was 94 % of control. For the same compound, the T/C (endpoint: mean survival time, dose: 200.0 mg/kg/injection, schedule: Q04DX003 (ip), vehicle: saline + alcohol) was 95 % of control, the T/C (endpoint: mean survival time, dose: 400.0 mg/kg/injection, schedule: Q01DX009 (ip), vehicle: saline + alcohol) was 94 % of control and the T/C (endpoint: mean survival time, dose: 400.0 mg/kg/injection, schedule: Q04DX003 (ip), vehicle: saline + alcohol) was 94 % of control.
With `Nc1ncnc2c1ncn2C1CC(O)C(O)CO1` (stereo unspecified) the T/C [1] was 103 % of control, the T/C [2] was 105 % of control and the T/C [3] was 105 % of control.
With `O=CNc1cc([N+](=O)[O-])ccc1OCc1ccccc1` the T/C [1] was 100 % of control, the T/C [2] was 97 % of control and the T/C [3] was 96 % of control.
`CCn1c(N)c2c(ncn2Cc2ccccc2)nc1=S` was tested, and the T/C (endpoint: mean survival time, dose: 12.5 mg/kg/injection, schedule: Q01DX001 (ip), vehicle: acetone) was 100 % of control, the T/C (endpoint: mean survival time, dose: 12.5 mg/kg/injection, schedule: Q04DX003 (ip), vehicle: saline with Tween-80) was 98 % of control and the T/C (endpoint: mean survival time, dose: 25.0 mg/kg/injection, schedule: Q01DX001 (ip), vehicle: acetone) was 100 % of control. The T/C (endpoint: mean survival time, dose: 25.0 mg/kg/injection, schedule: Q04DX003 (ip), vehicle: saline with Tween-80) was 98 % of control, the T/C (endpoint: mean survival time, dose: 50.0 mg/kg/injection, schedule: Q01DX001 (ip), vehicle: acetone) was 103 % of control and the T/C (endpoint: mean survival time, dose: 50.0 mg/kg/injection, schedule: Q04DX003 (ip), vehicle: saline with Tween-80) was 89 % of control.
With `COc1ccc(S(=O)(=O)N/N=C/C(=O)O)cc1` the T/C (endpoint: mean survival time, dose: 6.25 mg/kg/injection, schedule: Q01DX009 (ip), vehicle: saline with Tween-80) was 115 % of control, the T/C (endpoint: mean survival time, dose: 12.5 mg/kg/injection, schedule: Q01DX009 (ip), vehicle: alkali diluted with water) was 114 % of control and the T/C (endpoint: mean survival time, dose: 12.5 mg/kg/injection, schedule: Q01DX009 (ip), vehicle: saline with Tween-80) was 121 % of control. For the same compound, the T/C (endpoint: mean survival time, dose: 12.5 mg/kg/injection, schedule: Q04DX003 (ip), vehicle: other) was 109 % of control, the T/C (endpoint: mean survival time, dose: 25.0 mg/kg/injection, schedule: Q01DX009 (ip), vehicle: alkali diluted with water) was 116 % of control and the T/C (endpoint: mean survival time, dose: 25.0 mg/kg/injection, schedule: Q04DX003 (ip), vehicle: other) was 117 % of control. For the same compound, the T/C (endpoint: mean survival time, dose: 50.0 mg/kg/injection, schedule: Q01DX009 (ip), vehicle: alkali diluted with water) was 124 % of control, the T/C (endpoint: mean survival time, dose: 50.0 mg/kg/injection, schedule: Q01DX009 (ip), vehicle: saline with Tween-80) was 163 % of control and the T/C (endpoint: mean survival time, dose: 50.0 mg/kg/injection, schedule: Q04DX003 (ip), vehicle: other) was 124 % of control. For the same compound, the T/C (endpoint: mean survival time, dose: 100.0 mg/kg/injection, schedule: Q01DX009 (ip), vehicle: saline with Tween-80) was 151 % of control, the T/C (endpoint: mean survival time, dose: 100.0 mg/kg/injection, schedule: Q04DX003 (ip), vehicle: other) was 154 % of control and the T/C (endpoint: mean survival time, dose: 200.0 mg/kg/injection, schedule: Q01DX009 (ip), vehicle: alkali diluted with water) was 153 % of control. For the same compound, the T/C (endpoint: mean survival time, dose: 200.0 mg/kg/injection, schedule: Q04DX003 (ip), vehicle: other) was 155 % of control and 163 % of control and 203 % of control, the T/C (endpoint: median survival time, dose: 12.5 mg/kg/injection, schedule: Q01DX009 (oral), vehicle: saline with Tween-80) was 105 % of control and the T/C (endpoint: median survival time, dose: 25.0 mg/kg/injection, schedule: Q01DX009 (oral), vehicle: saline with Tween-80) was 105 % of control. For the same compound, the T/C (endpoint: median survival time, dose: 50.0 mg/kg/injection, schedule: Q01DX009 (oral), vehicle: saline with Tween-80) was 103 % of control, the T/C (endpoint: median survival time, dose: 100.0 mg/kg/injection, schedule: Q01DX009 (oral), vehicle: saline with Tween-80) was 95 % of control and the T/C (endpoint: median survival time, dose: 200.0 mg/kg/injection, schedule: Q01DX009 (oral), vehicle: saline with Tween-80) was 98 % of control. For the same compound, the T/C (endpoint: median survival time, dose: 400.0 mg/kg/injection, schedule: Q01DX009 (oral), vehicle: saline with Tween-80) was 105 % of control.
In the case of `Fc1ccccc1OCC1CO1` (stereo unspecified), the T/C [1] is reported as 114 % of control, the T/C [2] is reported as 110 % of control and the T/C [3] is reported as 108 % of control.
With `O=C1OCSc2ccccc21` the T/C (endpoint: mean survival time, dose: 25.0 mg/kg/injection, schedule: Q01DX009 (ip), vehicle: saline sonified) was 108 % of control, the T/C (endpoint: mean survival time, dose: 50.0 mg/kg/injection, schedule: Q01DX009 (ip), vehicle: saline sonified) was 102 % of control and the T/C (endpoint: mean survival time, dose: 100.0 mg/kg/injection, schedule: Q01DX009 (ip), vehicle: saline sonified) was 102 % of control. The T/C (endpoint: mean survival time, dose: 100.0 mg/kg/injection, schedule: Q04DX003 (ip), vehicle: saline with Tween-80) was 100 % of control, the T/C (endpoint: mean survival time, dose: 200.0 mg/kg/injection, schedule: Q04DX003 (ip), vehicle: saline with Tween-80) was 101 % of control and the T/C (endpoint: mean survival time, dose: 400.0 mg/kg/injection, schedule: Q04DX003 (ip), vehicle: saline with Tween-80) was 97 % of control.
